Test results from patent publication US8222487B2, “Application of ERF genes from Bupleurum kaoi” (National Tsing Hua University, priority 2009, dated 2012).

How the values were obtained:
Psudomonas syringe = test: Inhibition of bacteria in BkERF transformed B. kaoi cells; format: cell-based; conditions: 6 days after infection, transformed B. kaoi cells overexpressing the gene
From the text: (§1) The BkERF1, BkERF2.1, and BkERF2.2 genes are SEQ ID NO. 3, SEQ ID NO. 1 and SEQ ID NO. 2 respectively. The coding region of BkERFs was cloned into the multiple cloning site of the binary vector under the CaMV 35S promoter and the nopaline synthase termination sequence. The resulting vector was introduced into the Agrobacterium tumefaciens which was introduced into the cells of B. kaoi. The B. kaoi cells overexpressed BkERFs genes were observed using Western blot.
(§2) Bacteria suspension of a concentration about 10^8 cfu/ml was made from bacteria cultured 1-2 days with culture medium, and inoculated to 0.2 g BkERF transformed calli then grown in a 25° C. incubator. After six days, the calli was homogenized in 10 mM magnesium sulfate. Serial dilution of the bacteria was prepared and spread on nutrient agar plate containing 50 mg/L rifampicin. The plates were put in a 28° C. incubator for two days and then the numbers of bacteria were calculated.

Staphylococcus aureus = test: as above; format: cell-based; conditions: 6 days after infection, transformed B. kaoi cells overexpressing the gene
From the text: as §1, §2

Row | Substance | Growth of bacteria in the transformed cells (bacterial numbers) (Psudomonas syringe) | Growth of bacteria in the transformed cells (bacterial numbers) (Staphylococcus aureus)
1 | ERF1: B. kaoi ethylene response factor gene, ORF of 633 bp encoding 210 amino acids, overexpressed via binary vector | inhibited | inhibited
2 | ERF2.2: B. kaoi ethylene response factor gene, ORF of 702 bp encoding 233 amino acids, overexpressed via binary vector | inhibited | inhibited
3 | ERF2.1: B. kaoi ethylene response factor gene, ORF of 693 bp encoding 230 amino acids, overexpressed via binary vector | inhibited | inhibited
